Where two headings read alike, the source gives them in different places.

One data set concerns P. falciparum. As to conditions: IBSM, cited from earlier work.
The next data set deals with P. falciparum 3D7. Description: Induced blood-stage malaria (IBSM) volunteer infection study: parasitemia by 18S rRNA qPCR. Format: in vivo, Plasmodium falciparum. From the text:
A single cohort of eight subjects was inoculated intravenously with P. falciparum 3D7-infected human erythrocytes (approximately 1,800 viable parasites) as previously described ([24]). Parasite growth was monitored by collecting blood samples and performing quantitative PCR (qPCR) targeting the gene encoding P. falciparum 18S rRNA ([25]). […] The dose of cipargamin selected was predicted to be subtherapeutic based on preclinical modeling ([7]) and pharmacokinetic data obtained in previous clinical studies ([8]) and thus chosen to facilitate modeling to estimate the pharmacokinetic/pharmacodynamic relationship. To monitor total parasitemia, blood samples were collected for 18S rRNA qPCR before inoculation, on day 3, twice daily on days 4 to 6, pretreatment on day 7, and 4, 8, 12, 16, 24, 30, and 36 h posttreatment, twice daily from day 9 to day 11, and every 1 to 3 days until day 35. Blood samples for gametocytemia measurements were collected on day 11, every 1 to 3 days between day 15 and day 29, and on day 35. […] Analyses were performed in R version 3.3.0. The PRR and parasite clearance half-life were estimated using the slope of the optimal fit for the log-linear relationship of the parasitemia decay as described previously ([27]).
In general terms: Real-time PCR tracks product formation cycle by cycle.

In the case of `OC(c1cc(C(F)(F)F)nc2c(C(F)(F)F)cccc12)C1CCCCN1` (centres unmarked) [mefloquine], the parasite clearance half-life with P. falciparum (10 mg/kg single dose) was 6.2 h. For the compound `Cc1cc(Nc2ccc(S(F)(F)(F)(F)F)cc2)n2nc(C(C)(F)F)nc2n1` [DSM265], the parasite clearance half-life in the data set on P. falciparum (150 mg single dose) is 9.4 h. For the compound `Clc1ccc2c(N3CCN(CCCN4CCN(c5ccnc6cc(Cl)ccc56)CC4)CC3)ccnc2c1` [piperaquine, reference compound], the “clearance of asexual parasite regrowth” value in the data set on P. falciparum 3D7 (960 mg single oral dose after regrowth post-cipargamin) is “successful in clearing asexual parasite regrowth”. For the same compound, the “second parasite regrowth, number of subjects” value in the data set on P. falciparum 3D7 (after 960 mg piperaquine, 8 subjects) is 3 subjects. In addition, in the data set on P. falciparum (640 mg single dose), the parasite clearance half-life was 5.22 h.

The values above are taken from publication PMC7849011, “Defining the Antimalarial Activity of Cipargamin in Healthy Volunteers Experimentally Infected with Blood-Stage Plasmodium falciparum” (Antimicrobial Agents and Chemotherapy, 2021).
